ChEMBL document CHEMBL1201862, “PubChem BioAssay data set” (2004)
Activity calls are given as the source filed them.

Assays:
[1] = target: T1, Glycogen synthase kinase-3 alpha (Homo sapiens, UniProt P49840); test: Inhibition of Human GSK-3 alpha Activity Measured in Biochemical System Using Microfluidics - 2063-06_Inhibitor_Dose_DryPowder_Activity_Set2. [Related pubchem assays (depositor defined):AID2709]
[2] = target: Cyclin-dependent kinase 5/CDK5 activator 1 (Homo sapiens, UniProt Q00535); test: human CDK5 activity blockade – biochemical, microfluidic mobility shift, dry powder, selectivity assay for GSK-3 alpha inhibitor project, dose response (AID 588430)
[3] = target: T2, Glycogen synthase kinase-3 beta (Homo sapiens, UniProt P49841); test: Inhibition of Human GSK-3 beta Activity Measured in Biochemical System Using Microfluidics - 2063-05_Inhibitor_Dose_DryPowder_Activity_Set2. [Related pubchem assays (depositor defined):AID2709]
[4] = target: 72 kDa type IV collagenase (Homo sapiens, UniProt P08253); test: Dose Response validation of uHTS RPN11 inhibitor hits using a MMP-2 Fluorescence assay.; assay type: functional
[5] = target: 26S proteasome non-ATPase regulatory subunit 14 (Homo sapiens, UniProt O00487); test: inhibition of proteasome subunit RPN11 – biochemical, fluorescence polarization, uHTS hits, confirmation (AID 602368); assay type: functional
Prothrombin = Prothrombin (Bos taurus, UniProt P00735); test: thrombin protease inhibitors – biochemical, fluorescence polarization, uHTS hits, dose response (AID 602369); assay type: functional
Orexin receptor type 2 [6] = target: T3, Orexin receptor type 2 (Homo sapiens, UniProt O43614); test: Counterscreen assay for antagonists of the orexin 1 receptor (OX1R; HCRTR1): Homogeneous Time Resolved Fluorescence (HTRF)-based cell-based dose response assay for antagonists of the orexin 2 receptor (OX2R; HCRTR2), run by assay provider.; assay type: functional
[7] = target: T4, Polyadenylate-binding protein 1 (Homo sapiens, UniProt P11940); test: MLLE binding blockers, Cy5 peptide tracer – biochemical, fluorescence polarization, Cy5-PAM2 peptide, secondary, miRNA deadenylation inhibitor project, dose response (AID 602260); assay type: functional; conditions: read-out: IC50_Mean
[8] = target: T5, Orexin/Hypocretin receptor type 1 (Homo sapiens, UniProt O43613); test: (§1) Fluorescence-based cell-based high throughput dose response assay for antagonists of the orexin 1 receptor (OX1R; HCRTR1). [Related pubchem assays (depositor defined):AID434989, AID435008, AID463079, AID485270, AID492963, AID492964, AID492965, AID493232, AID504717, AID504718]; assay type: functional
T5 sequence (O43613 whole entry): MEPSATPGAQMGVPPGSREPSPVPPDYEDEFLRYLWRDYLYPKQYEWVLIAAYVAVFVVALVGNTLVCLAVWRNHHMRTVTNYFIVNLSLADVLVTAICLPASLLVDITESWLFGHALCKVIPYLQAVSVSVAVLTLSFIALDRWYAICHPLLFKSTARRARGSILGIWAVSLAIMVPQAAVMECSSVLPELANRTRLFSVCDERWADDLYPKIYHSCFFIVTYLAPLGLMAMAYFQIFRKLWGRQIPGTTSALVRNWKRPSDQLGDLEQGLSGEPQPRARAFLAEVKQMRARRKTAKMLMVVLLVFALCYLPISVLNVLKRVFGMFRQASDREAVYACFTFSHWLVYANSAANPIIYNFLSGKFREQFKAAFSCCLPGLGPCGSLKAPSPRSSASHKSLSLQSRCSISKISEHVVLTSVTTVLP

[9] = target: T5, Orexin/Hypocretin receptor type 1; test: as §1, with “Homogeneous Time Resolved Fluorescence (HTRF)-based” for “Fluorescence-based”; assay type: functional
CHO-K1 = test: (§2) Counterscreen for antagonists of the orexin 1 receptor (OX1R; HCRTR1): Homogeneous time resolved fluorescence (HTRF)-based cell-based dose response assay to identify antagonists of the parental CHO-K1 cell line. [Related pubchem assays (depositor defined):AID434989, AID435008, AID463079, AID485270, AID492963, AID492964, AID492965, AID493232, AID504699, AID504701]; assay type: functional; conditions: Cricetulus griseus
[10] = target: T4, Polyadenylate-binding protein 1; test: MLLE domain peptide-binding blockers, IC50 – biochemical, fluorescence polarization, FITC-PAM2 peptide, dose response (AID 602259); assay type: functional; conditions: read-out: IC50_Mean
[11] = as §2, with “Fluorescence-based” for “Homogeneous time resolved fluorescence (HTRF)-based”, “cell-based high throughput” for “cell-based”, “CHO” for “CHO-K1”; assay type: functional
Orexin receptor type 2 [12] = target: T3, Orexin receptor type 2; test: Counterscreen assay for antagonists of the orexin 1 receptor (OX1R; HCRTR1): Fluorescence-based cell-based dose response assay for antagonists of the orexin 2 receptor (OX2R; HCRTR2), run by assay provider.; assay type: functional
[13] = target: Sphingosine 1-phosphate receptor 4 (Homo sapiens, UniProt O95977); test: Late-stage fluorescence-based dose-response cell-based counterscreen assay to identify agonists of the Sphingosine 1-Phosphate Receptor 3 (S1P3): Sphingosine 1-Phosphate Receptor 4 (S1P4) agonist assay.; assay type: functional
[14] = target: T6, Sphingosine 1-phosphate receptor 2 (Homo sapiens, UniProt O95136); test: Late-stage fluorescence-based dose-response cell-based counterscreen assay to identify agonists of the Sphingosine 1-Phosphate Receptor 3 (S1P3): Sphingosine 1-Phosphate Receptor 2 (S1P2) agonist assay.; assay type: functional
[15] = target: DNA dC->dU-editing enzyme APOBEC-3G (Homo sapiens, UniProt Q9HC16); test: inhibition of APOBEC3G ssDNA deamination – biochemical, fluorescence, single-stranded DNA substrate, SAR follow-up (AID 602136); assay type: functional; conditions: read-out: IC50_Mean
[16] = target: DNA dC->dU-editing enzyme APOBEC-3A (Homo sapiens, UniProt P31941); test: SAR analysis of small molecule inhibitors of APOBEC3A DNA Deaminase via a fluorescence-based single-stranded DNA deaminase assay.; assay type: functional; conditions: read-out: IC50_Mean
[17] = target: Sphingosine 1-phosphate receptor 1 (Homo sapiens, UniProt P21453); test: Late-stage fluorescence-based dose-response cell-based counterscreen assay to identify agonists of the Sphingosine 1-Phosphate Receptor 4 (S1P4): Sphingosine 1-Phosphate Receptor 1 (S1P1) agonist assay Set 2.; assay type: functional
[18] = target: Sphingosine 1-phosphate receptor 3 (Homo sapiens, UniProt Q99500); test: Late-stage fluorescence-based dose-response cell-based counterscreen assay to identify agonists of the Sphingosine 1-Phosphate Receptor 4 (S1P4): Sphingosine 1-Phosphate Receptor 3 (S1P3) agonist assay Set 2.; assay type: functional
[19] = target: T6, Sphingosine 1-phosphate receptor 2; test: activation of human S1P2 receptor – cell-based, fluorescence, set 2, counter-screen for S1P4 agonist project, late-stage follow-up (AID 504873); assay type: functional
[20] = target: Sphingosine 1-phosphate receptor 5 (Homo sapiens, UniProt Q9H228); test: activation of human S1P5 receptor – cell-based, fluorescence, set 2, counter-screen for S1P4 agonist project, late-stage follow-up (AID 504867); assay type: functional
[21] = target: Dual specificity tyrosine-phosphorylation-regulated kinase 1A (Homo sapiens, UniProt Q13627); assay type: functional;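 also: measured against DYRK1A as one member of a broad kinome profiling panel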
[22] = target: Ribosomal protein S6 kinase alpha-3 (Homo sapiens, UniProt P51812); assay type: functional;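 also: measured within a kinome-wide profiling panel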
[23] = target: Proto-oncogene tyrosine-protein kinase receptor Ret (Homo sapiens, UniProt P07949); assay type: functional;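 also: measured within a kinome-wide profiling panel, RET as the panel member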
[24] = target: Dual specificity protein kinase CLK4 (Homo sapiens, UniProt Q9HAZ1); assay type: functional
[25] = target: Cyclin-dependent kinase 9 (Homo sapiens, UniProt P50750); assay type: functional;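 also: value from the CDK9 entry of a kinome-spanning kinase panel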
[26] = target: Tyrosine-protein kinase ABL1 (Homo sapiens, UniProt P00519); assay type: functional
[27] = target: Dual specificity mitogen-activated protein kinase kinase 2 (Homo sapiens, UniProt P36507); test: Navigating the Kinome. Panel member name: MAP2K2; assay type: functional
[28] = target: T1, Glycogen synthase kinase-3 alpha; assay type: functional
[29] = target: Vascular endothelial growth factor receptor 2 (Homo sapiens, UniProt P35968); assay type: functional
[30] = target: T2, Glycogen synthase kinase-3 beta; assay type: functional
[31] = target: Platelet-derived growth factor receptor beta (Homo sapiens, UniProt P09619); assay type: functional;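 also: value comes from a kinome panel, with PDGFRB tested as one panel member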
[32] = target: Mitogen-activated protein kinase kinase kinase kinase 2 (Homo sapiens, UniProt Q12851); assay type: functional;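 also: measured as one member of a kinome-wide kinase panel, with MAP4K2 as the panel entry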
Aurora kinase A = target: T7, Aurora kinase A (Homo sapiens, UniProt O14965); assay type: functional;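 also: value from the Navigating the Kinome kinase panel profiling, panel entry STK6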
T7 sequence (O14965 whole entry): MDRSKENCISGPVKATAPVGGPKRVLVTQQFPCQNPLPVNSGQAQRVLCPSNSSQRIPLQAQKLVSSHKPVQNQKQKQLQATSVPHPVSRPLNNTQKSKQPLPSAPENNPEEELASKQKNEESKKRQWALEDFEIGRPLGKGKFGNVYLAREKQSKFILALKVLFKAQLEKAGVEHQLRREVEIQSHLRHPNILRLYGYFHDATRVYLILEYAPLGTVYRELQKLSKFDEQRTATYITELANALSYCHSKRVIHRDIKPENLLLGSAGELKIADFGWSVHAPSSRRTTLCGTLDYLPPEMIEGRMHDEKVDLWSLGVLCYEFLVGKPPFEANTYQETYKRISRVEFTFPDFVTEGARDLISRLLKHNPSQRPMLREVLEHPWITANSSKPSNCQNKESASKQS

[33] = target: Protein kinase C theta type (Homo sapiens, UniProt Q04759); test: Navigating the Kinome. Panel member name: PRKCQ; assay type: functional
[34] = target: Calcium/calmodulin-dependent protein kinase type II subunit alpha (Homo sapiens, UniProt Q9UQM7); test: Navigating the Kinome. Panel member name: CAMK2A; assay type: functional
[35] = target: Receptor-type tyrosine-protein kinase FLT3 (Homo sapiens, UniProt P36888); assay type: functional;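 also: FLT3 was tested as one member of a kinome-wide kinase panel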
[36] = target: Mitogen-activated protein kinase 8 (Homo sapiens, UniProt P45983); assay type: functional;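 also: value comes from one member of a kinome-wide kinase profiling panel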
[37] = target: Macrophage colony-stimulating factor 1 receptor (Homo sapiens, UniProt P07333); assay type: functional;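 also: value comes from the Navigating the Kinome screening panel, CSF1R member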
[38] = target: Serine/threonine-protein kinase Chk1 (Homo sapiens, UniProt O14757); assay type: functional;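 also: measured as one member of a kinome-wide kinase profiling panel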
[39] = target: Serine/threonine-protein kinase pim-1 (Homo sapiens, UniProt P11309); assay type: functional
[40] = target: Tyrosine-protein kinase JAK2 (Homo sapiens, UniProt O60674); assay type: functional;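 also: JAK2 tested as one member of a kinase panel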
[41] = target: High affinity nerve growth factor receptor (Homo sapiens, UniProt P04629); assay type: functional;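 also: NTRK1 tested as one member of a kinome-wide profiling panel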
[42] = target: cAMP-dependent protein kinase catalytic subunit alpha (Homo sapiens, UniProt P17612); assay type: functional
[43] = target: Tyrosine-protein kinase receptor TYRO3 (Homo sapiens, UniProt Q06418); assay type: functional;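 also: TYRO3 value obtained as one member of a kinome-wide profiling panel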
[44] = target: Dual specificity tyrosine-phosphorylation-regulated kinase 1B (Homo sapiens, UniProt Q9Y463); test: Navigating the Kinome. Panel member name: DYRK1B; assay type: functional
LIM domain kinase 1 = LIM domain kinase 1 (Homo sapiens, UniProt P53667); test: Navigating the Kinome. Panel member name: LIMK1; assay type: functional
[45] = target: Death-associated protein kinase 3 (Homo sapiens, UniProt O43293); assay type: functional;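 also: measured as one member of a kinome-wide profiling panel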
[46] = target: 5'-AMP-activated protein kinase catalytic subunit alpha-1 (Homo sapiens, UniProt Q13131); assay type: functional
[47] = target: BDNF/NT-3 growth factors receptor (Homo sapiens, UniProt Q16620); assay type: functional;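 also: NTRK2 measured as one member of a broad kinome-wide kinase profiling panel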
[48] = target: Hepatocyte growth factor receptor (Homo sapiens, UniProt P08581); assay type: functional;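 also: kinase panel profiling across the kinome, with MET as the panel member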
[49] = target: Cyclin-dependent kinase 19 (Homo sapiens, UniProt Q9BWU1); test: Navigating the Kinome. Panel member name: CDC2L6; assay type: functional

T2 sequence (P49841 whole entry): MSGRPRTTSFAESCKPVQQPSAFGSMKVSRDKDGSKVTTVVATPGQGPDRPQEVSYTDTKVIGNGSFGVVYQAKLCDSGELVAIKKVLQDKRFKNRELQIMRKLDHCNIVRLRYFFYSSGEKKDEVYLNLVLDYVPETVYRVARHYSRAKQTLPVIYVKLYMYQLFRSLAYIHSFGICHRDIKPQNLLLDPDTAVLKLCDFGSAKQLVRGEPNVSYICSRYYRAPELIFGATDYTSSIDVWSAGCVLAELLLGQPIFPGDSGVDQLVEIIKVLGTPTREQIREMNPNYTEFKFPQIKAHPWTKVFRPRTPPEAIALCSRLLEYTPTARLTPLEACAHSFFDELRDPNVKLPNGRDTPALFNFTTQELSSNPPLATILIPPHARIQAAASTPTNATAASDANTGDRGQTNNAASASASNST
T4 sequence (P11940 whole entry): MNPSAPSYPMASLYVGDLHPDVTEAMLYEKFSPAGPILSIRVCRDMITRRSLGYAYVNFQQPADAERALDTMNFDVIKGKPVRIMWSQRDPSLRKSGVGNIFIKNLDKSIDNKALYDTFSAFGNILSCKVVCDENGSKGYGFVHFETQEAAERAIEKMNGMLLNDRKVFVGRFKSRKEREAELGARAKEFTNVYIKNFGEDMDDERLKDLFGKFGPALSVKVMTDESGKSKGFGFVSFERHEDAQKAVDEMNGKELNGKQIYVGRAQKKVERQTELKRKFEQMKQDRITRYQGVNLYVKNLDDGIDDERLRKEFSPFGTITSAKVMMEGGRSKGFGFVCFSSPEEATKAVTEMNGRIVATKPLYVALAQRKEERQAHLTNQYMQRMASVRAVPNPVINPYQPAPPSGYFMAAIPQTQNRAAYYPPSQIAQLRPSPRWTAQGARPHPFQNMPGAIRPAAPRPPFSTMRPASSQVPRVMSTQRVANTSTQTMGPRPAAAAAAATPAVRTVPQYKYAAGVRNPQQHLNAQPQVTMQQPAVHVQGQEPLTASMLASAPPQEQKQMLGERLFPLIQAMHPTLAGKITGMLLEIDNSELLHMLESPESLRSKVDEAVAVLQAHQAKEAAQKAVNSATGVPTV
T1 sequence (P49840 whole entry): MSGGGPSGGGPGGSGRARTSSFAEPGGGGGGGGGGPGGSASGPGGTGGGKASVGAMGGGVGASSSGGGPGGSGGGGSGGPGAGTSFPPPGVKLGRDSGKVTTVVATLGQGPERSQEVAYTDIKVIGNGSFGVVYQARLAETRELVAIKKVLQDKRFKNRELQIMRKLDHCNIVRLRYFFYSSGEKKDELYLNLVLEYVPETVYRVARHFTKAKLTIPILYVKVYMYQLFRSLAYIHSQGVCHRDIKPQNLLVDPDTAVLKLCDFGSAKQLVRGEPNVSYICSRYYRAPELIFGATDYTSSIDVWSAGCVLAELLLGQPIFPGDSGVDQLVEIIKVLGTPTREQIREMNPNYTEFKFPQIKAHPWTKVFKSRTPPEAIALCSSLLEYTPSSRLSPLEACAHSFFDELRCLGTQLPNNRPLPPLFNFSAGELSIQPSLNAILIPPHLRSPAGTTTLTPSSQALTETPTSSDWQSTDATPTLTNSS
T3 sequence (O43614 whole entry): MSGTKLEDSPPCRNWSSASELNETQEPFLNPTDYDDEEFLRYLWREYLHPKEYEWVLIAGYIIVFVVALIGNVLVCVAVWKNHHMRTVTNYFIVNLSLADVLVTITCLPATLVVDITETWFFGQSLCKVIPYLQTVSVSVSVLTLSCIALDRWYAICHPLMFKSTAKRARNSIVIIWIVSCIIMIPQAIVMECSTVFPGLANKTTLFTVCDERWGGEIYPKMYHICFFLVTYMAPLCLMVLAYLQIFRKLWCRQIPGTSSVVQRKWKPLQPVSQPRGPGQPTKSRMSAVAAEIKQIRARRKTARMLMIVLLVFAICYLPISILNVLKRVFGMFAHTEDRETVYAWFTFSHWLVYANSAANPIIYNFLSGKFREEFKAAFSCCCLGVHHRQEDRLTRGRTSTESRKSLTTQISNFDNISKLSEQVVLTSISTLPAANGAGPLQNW
T6 sequence (O95136 whole entry): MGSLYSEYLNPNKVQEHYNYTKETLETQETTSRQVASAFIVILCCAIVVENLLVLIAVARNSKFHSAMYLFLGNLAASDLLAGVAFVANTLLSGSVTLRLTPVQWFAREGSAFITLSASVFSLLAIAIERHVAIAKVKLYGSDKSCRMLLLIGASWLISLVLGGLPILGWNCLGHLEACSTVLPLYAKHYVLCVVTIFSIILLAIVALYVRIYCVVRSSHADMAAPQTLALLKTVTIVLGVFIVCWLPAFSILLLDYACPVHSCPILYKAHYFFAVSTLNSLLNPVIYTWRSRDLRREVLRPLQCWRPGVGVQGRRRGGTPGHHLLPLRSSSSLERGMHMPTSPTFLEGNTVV
Chain of DNA dC->dU-editing enzyme APOBEC-3A (P31941 whole entry): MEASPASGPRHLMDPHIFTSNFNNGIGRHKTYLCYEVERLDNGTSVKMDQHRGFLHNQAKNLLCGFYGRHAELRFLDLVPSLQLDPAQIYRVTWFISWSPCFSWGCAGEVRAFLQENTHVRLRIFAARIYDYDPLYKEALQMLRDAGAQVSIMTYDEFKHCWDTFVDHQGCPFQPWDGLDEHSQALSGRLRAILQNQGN
Chain of 26S proteasome non-ATPase regulatory subunit 14 (O00487 whole entry): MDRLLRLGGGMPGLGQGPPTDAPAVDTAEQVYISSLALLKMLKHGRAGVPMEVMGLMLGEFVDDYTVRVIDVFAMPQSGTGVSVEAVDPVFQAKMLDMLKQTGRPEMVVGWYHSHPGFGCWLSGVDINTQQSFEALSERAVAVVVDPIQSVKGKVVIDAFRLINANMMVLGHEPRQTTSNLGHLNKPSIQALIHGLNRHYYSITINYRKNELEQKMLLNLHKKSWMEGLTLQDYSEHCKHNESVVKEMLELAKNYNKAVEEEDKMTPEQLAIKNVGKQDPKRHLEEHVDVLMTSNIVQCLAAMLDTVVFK
Chain of Platelet-derived growth factor receptor beta (P09619 whole entry): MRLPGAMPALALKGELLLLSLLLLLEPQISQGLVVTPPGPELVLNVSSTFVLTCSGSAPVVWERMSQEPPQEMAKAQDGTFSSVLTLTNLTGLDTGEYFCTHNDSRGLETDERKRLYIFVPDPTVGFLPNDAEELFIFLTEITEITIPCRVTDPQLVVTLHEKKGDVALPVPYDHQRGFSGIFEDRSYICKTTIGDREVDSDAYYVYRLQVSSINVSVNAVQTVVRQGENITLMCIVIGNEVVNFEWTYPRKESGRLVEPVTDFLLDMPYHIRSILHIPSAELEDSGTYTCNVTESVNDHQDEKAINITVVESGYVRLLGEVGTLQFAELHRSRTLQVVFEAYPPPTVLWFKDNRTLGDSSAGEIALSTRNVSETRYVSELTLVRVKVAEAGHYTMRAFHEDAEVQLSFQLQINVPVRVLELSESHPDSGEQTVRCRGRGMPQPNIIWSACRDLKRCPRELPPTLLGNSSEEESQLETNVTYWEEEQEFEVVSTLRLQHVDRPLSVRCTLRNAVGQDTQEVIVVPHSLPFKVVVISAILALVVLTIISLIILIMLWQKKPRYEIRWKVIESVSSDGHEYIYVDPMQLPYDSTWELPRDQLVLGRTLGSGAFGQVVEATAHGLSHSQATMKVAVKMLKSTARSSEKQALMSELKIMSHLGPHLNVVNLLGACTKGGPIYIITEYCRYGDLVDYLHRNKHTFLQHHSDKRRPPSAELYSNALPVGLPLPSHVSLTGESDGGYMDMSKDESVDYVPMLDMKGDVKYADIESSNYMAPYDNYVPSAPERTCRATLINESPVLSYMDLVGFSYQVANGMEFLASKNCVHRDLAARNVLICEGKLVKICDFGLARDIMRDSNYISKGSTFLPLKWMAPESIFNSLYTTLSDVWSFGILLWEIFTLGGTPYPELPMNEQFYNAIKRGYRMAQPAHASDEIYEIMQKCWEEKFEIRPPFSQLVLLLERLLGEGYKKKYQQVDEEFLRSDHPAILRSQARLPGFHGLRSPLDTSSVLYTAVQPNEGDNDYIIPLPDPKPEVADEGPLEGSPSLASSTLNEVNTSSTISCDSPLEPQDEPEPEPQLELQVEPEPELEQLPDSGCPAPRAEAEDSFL
Chain of Mitogen-activated protein kinase kinase kinase kinase 2 (Q12851 whole entry): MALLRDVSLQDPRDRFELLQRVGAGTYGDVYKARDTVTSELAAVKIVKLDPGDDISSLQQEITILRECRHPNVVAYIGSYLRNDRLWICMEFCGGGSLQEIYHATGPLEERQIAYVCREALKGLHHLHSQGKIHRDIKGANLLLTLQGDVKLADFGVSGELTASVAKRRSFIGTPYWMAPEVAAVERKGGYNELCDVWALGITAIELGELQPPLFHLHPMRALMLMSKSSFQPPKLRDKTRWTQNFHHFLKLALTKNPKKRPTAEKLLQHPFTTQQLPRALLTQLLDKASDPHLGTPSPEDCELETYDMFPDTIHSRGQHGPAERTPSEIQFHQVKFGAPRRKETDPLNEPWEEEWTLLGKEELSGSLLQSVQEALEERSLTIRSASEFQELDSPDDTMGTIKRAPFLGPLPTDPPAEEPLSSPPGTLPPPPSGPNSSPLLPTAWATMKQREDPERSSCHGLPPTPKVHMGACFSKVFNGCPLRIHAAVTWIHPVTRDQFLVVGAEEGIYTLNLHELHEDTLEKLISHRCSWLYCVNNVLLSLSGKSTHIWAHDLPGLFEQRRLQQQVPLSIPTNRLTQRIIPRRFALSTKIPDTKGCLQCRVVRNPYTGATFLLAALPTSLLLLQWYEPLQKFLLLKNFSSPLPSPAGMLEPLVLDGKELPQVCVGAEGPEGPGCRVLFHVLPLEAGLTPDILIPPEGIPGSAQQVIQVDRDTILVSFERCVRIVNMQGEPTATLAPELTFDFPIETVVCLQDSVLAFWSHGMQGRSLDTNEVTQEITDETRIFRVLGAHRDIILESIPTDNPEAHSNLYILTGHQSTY

O=C(CSc1ccc2nnc(-c3cccs3)n2n1)N1CCCC1
active: AC50 [1] 2.08 µM | AC50 [2] 78.4 µM | AC50 [3] 0.742 µM

O=C1NC(=O)N(c2cccc3ccccc23)C(=O)/C1=C\NN1CCCCC1c1cccnc1 (stereo not drawn)
inactive: IC50 [4] > 100 µM
active: IC50 [5] 27.4 µM | IC50 (Prothrombin) 59.6 µM

CCN1C(=O)/C(=C2/SC(C)=C(C)N2CC)SC1=S
inactive: IC50 (Orexin receptor type 2 [6]) > 50 µM | IC50 [7] > 66 µM | IC50 [8] 14.7 µM | IC50 (CHO-K1) > 66.2 µM | IC50 [10] > 66 µM | IC50 [11] > 49.8 µM | IC50 (Orexin receptor type 2 [12]) > 88.8 µM
active: IC50 [9] 3.15 µM

O=C(c1cc(C2CC2)on1)N(C1CCCCCC1)C1CCCC1
inactive: EC50 [13] > 50 µM | EC50 [14] > 50 µM

CN(CC1CCCN(CCc2ccc(Cl)cc2)C1)C(=O)c1cc2ncccn2n1 (stereo not drawn)
inactive: IC50 [15] > 99 µM | IC50 [16] > 99 µM

C/N=C1/S/C(=C/c2cc(C)n(-c3ccc(F)cc3F)c2C)C(=O)N1C
inactive: EC50 [18] > 25 µM | EC50 [19] > 25 µM | EC50 [20] > 25 µM
active: EC50 [17] 4.47 µM

COc1ccc(-c2ccc(N)cc2)c2cnoc12
active: Ki [22] 63.1 µM | Ki [23] 39.8 µM | Ki [24] 7.94 µM | Ki [26] 63.1 µM | Ki [27] 100 µM | Ki [28] 100 µM | Ki [30] 31.6 µM | Ki [32] 63.1 µM | Ki [34] 79.4 µM | Ki [35] 79.4 µM | Ki [36] 50.1 µM | Ki [38] 3.98 µM | Ki [39] 12.6 µM | Ki [40] 79.4 µM | Ki [41] 15.8 µM | Ki [43] 100 µM | Ki [44] 50.1 µM | Ki (LIM domain kinase 1) 3.98 µM | Ki [45] 79.4 µM | Ki [46] 79.4 µM | Ki [47] 100 µM | Ki [48] 79.4 µM
inactive: Ki [21] > 63.1 µM | Ki [25] > 63.1 µM | Ki [29] > 79.4 µM | Ki [31] > 79.4 µM | Ki (Aurora kinase A) > 50.1 µM | Ki [33] > 79.4 µM | Ki [37] > 100 µM | Ki [42] > 50.1 µM | Ki [49] > 100 µM
